Test results taken from article doi:10.1101/2022.03.11.483894v1, “Structure and function of diadenylate cyclase DacM from Mycoplasma ovipneumoniae” (biorxiv, 2022).

Target: T1, DacM (Δ2-33DacM; DacM (35-203)) (Mesomycoplasma ovipneumoniae, UniProt A0A014M399)
T1 construct: gene MOVI_0530; N-terminal transmembrane helix removed (Δ2-33); codon-optimized gene in pET28b, E. coli BL21(DE3), N-terminal His6 fusion; homodimer in crystal
T1 sequence (A0A014M399 35-203): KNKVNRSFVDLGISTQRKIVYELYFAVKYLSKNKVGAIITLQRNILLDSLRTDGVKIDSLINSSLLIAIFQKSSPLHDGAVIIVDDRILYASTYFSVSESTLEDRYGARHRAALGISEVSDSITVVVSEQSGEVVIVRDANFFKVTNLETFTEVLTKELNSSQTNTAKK
Experiment: X-ray crystal structure of complex, […] Å; also LC-MS detection of c-di-AMP formation
Format: binding
Details: activity assay: 2 μM enzyme, 10 mM MgCl2, Tris-HCl pH 7.5, 37 °C, 1 h

| SMILES | X-ray crystal structure of complex, 1.9 Å; also LC-MS detection of c-di-AMP form (crystal: 16 °C, HEPES pH 7.5, active site of protomer A, 0.1 mM ATP) | X-ray crystal structure of complex, 1.9 Å; also LC-MS detection of c-di-AMP form (crystal grown with ATP as additive, 16 °C, HEPES pH 7.5, active site of protomer B, 0.1 mM ADP) |
| --- | --- | --- |
| Nc1ncnc2c1ncn2[C@@H]1O[C@H](COP(=O)(O)OP(=O)(O)OP(=O)(O)O)[C@@H](O)[C@H]1O [ATP] | an ATP molecule, which was clearly bound in the active site of one DacM protomer |  |
| Nc1ncnc2c1ncn2[C@@H]1O[C@H](COP(=O)(O)OP(=O)(O)O)[C@@H](O)[C@H]1O [ADP] |  | active site of the second DacM protomer (protomer B), was consistent with a bound molecule of ADP |
